Experimental data published in patent publication US8791264B2 (Purdue Pharma L.P., priority 2006, dated 2014).

Biological target: T1, N-type calcium channel (NTCC) (Homo sapiens, UniProt Q00975)
T1 construct: host or cells: IMR32 cells differentiated with dibutyryl cAMP and bromodeoxyuridine
Assay: FLIPR calcium mobilization assay for N-type calcium channel
Assay type: cell-based
Settings: calcium mobilization in vitro assay; differentiated IMR32 cells
Experimental: Unless noted otherwise, cell culture reagents were purchased from Mediatech of Herndon, Md. IMR32 cells (American Type Culture Collection, ATCC, Manassas, Va.) were routinely cultured in growth medium consisting of minimum essential medium containing 10% fetal bovine serum (FBS, Hyclone, Logan, Utah), 100 U/mL penicillin, 100 μg/mL streptomycin, 2 mM L-glutamine, 1 mM sodium pyruvate, and 1× MEM non-essential amino acids. 80-90% confluent flasks of cells were differentiated using the following differentiation medium: Growth medium plus 1 mM dibutyryl cyclic AMP (Sigma, St. Louis, Mo.), and 2.5 μM bromodeoxyuridine (Sigma). Cells were differentiated for 8 days by replacing differentiation medium every 2-3 days.
FLIPR Calcium Mobilization Assay for N-Type Calcium Channel.
One day prior to performing this assay, differentiated IMR32 cells were treated with 1× CellStripper, and seeded on poly-D-lysine-coated 96-well clear-bottom black plates (Becton Dickinson, Franklin Lakes, N.J.) at 200,000 cells/well. On the day of the assay, the cell plates were washed with IMR32 buffer (127 mM NaCl, 1 mM KCl, 2 mM MgCl2, 700 μM NaH2PO4, 5 mM CaCl2, 5 mM NaHCO3, 8 mM HEPES, 10 mM glucose, pH 7.4), then pre-stimulated with KCl and loaded as follows: 0.05 mL of IMR32 buffer, 0.05 mL of each compound tested diluted in IMR32 buffer containing 20 μM nitrendipine (Sigma), and 0.1 mL KCl dissolved in IMR32 buffer, plus Fluo-4 were added (3 μM final concentration, Molecular Probes, Eugene, Oreg.). Final test compound concentrations ranged from about 846 pM to about 17 μM, final nitrendipine concentration was 5 μM, and final KCl concentration was 90 mM. After 1 hour, the cells were washed twice with 0.05 mL of each compound is tested in nitrendipine-containing IMR32 buffer (no KCl or Fluo-4), and then replaced with 0.1 mL of each compound tested in nitrendipine-containing IMR32 buffer. Plates were then transferred to a Fluorimetric Imaging Plate Reader (FLIPR^96, Molecular Devices, Inc., Sunnyvale, Calif.) for assay. The FLIPR measured basal Fluo-4 fluorescence for 315 seconds (i.e., 5 minutes and 15 seconds), then added 0.1 mL KCl agonist dissolved in IMR32 buffer and measured fluorescence for another 45 seconds. Final test compound concentrations on the cells after FLIPR read ranged from about 846 pM to about 17 μM, final nitrendipine concentration was 5 μM, and final KCl concentration was 90 mM. Data were collected over the entire time course and analyzed using Excel, Graph Pad Prism (version 3.02, Graph Pad, San Diego, Calif.), or an in-house non-linear regression analysis software.

T1 sequence (Q00975 whole entry): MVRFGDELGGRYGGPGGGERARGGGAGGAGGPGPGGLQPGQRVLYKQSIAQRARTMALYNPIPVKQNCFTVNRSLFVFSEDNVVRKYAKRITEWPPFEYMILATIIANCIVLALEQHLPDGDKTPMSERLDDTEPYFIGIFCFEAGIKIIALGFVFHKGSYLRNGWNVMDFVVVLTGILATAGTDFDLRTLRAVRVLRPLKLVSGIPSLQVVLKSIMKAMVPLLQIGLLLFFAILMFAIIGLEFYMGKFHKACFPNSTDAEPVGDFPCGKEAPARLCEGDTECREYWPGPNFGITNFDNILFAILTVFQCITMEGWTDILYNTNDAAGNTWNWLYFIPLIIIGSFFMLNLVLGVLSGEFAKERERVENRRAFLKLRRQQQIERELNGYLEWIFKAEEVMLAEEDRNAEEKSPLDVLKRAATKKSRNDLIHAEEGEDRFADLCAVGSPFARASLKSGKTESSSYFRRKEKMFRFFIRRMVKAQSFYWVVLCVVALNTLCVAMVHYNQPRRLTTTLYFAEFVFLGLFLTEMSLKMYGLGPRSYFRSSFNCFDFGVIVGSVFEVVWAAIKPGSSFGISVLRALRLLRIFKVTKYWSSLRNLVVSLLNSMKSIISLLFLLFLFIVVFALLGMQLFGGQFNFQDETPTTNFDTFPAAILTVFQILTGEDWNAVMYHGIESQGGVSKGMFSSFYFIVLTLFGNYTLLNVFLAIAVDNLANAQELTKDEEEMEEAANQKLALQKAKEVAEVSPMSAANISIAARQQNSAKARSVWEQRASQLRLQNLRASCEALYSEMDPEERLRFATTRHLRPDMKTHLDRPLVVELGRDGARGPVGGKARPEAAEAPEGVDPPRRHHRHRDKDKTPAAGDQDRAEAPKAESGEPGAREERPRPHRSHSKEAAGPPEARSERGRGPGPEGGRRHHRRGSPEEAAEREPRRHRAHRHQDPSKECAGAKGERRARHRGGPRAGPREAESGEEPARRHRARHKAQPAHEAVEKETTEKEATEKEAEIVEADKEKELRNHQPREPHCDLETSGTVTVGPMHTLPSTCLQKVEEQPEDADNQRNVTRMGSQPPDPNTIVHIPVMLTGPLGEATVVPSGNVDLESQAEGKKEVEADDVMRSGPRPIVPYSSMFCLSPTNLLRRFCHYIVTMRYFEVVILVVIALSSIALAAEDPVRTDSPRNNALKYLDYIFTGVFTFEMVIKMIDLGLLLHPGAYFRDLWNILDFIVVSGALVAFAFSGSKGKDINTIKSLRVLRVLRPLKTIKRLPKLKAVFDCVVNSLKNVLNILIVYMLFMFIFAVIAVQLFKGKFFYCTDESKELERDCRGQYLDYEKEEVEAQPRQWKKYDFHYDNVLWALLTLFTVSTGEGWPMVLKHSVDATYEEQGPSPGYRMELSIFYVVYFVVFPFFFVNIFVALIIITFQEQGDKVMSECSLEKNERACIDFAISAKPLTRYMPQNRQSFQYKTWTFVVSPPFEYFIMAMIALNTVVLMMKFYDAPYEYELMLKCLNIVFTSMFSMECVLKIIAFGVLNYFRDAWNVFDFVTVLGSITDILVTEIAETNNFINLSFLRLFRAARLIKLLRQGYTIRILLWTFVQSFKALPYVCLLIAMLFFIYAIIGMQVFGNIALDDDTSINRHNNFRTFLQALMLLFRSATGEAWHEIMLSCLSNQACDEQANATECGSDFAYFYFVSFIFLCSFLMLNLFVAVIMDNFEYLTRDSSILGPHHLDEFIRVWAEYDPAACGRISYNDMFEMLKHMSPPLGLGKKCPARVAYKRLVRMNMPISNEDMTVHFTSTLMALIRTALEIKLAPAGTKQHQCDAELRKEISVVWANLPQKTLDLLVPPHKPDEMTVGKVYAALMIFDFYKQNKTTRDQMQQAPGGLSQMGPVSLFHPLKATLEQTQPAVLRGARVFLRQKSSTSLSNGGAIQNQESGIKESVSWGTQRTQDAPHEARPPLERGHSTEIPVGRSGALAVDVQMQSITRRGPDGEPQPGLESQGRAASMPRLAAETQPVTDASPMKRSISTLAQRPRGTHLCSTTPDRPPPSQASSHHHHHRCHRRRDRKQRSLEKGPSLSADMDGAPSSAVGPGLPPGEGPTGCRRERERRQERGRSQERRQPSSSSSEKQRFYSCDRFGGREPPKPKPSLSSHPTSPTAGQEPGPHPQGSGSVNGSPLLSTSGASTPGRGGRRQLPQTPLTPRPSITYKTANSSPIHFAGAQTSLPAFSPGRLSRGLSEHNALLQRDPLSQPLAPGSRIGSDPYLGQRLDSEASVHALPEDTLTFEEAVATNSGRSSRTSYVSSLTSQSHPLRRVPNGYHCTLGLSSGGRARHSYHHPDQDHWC
T1 sequence (P54289 25-956 partner limits assumed): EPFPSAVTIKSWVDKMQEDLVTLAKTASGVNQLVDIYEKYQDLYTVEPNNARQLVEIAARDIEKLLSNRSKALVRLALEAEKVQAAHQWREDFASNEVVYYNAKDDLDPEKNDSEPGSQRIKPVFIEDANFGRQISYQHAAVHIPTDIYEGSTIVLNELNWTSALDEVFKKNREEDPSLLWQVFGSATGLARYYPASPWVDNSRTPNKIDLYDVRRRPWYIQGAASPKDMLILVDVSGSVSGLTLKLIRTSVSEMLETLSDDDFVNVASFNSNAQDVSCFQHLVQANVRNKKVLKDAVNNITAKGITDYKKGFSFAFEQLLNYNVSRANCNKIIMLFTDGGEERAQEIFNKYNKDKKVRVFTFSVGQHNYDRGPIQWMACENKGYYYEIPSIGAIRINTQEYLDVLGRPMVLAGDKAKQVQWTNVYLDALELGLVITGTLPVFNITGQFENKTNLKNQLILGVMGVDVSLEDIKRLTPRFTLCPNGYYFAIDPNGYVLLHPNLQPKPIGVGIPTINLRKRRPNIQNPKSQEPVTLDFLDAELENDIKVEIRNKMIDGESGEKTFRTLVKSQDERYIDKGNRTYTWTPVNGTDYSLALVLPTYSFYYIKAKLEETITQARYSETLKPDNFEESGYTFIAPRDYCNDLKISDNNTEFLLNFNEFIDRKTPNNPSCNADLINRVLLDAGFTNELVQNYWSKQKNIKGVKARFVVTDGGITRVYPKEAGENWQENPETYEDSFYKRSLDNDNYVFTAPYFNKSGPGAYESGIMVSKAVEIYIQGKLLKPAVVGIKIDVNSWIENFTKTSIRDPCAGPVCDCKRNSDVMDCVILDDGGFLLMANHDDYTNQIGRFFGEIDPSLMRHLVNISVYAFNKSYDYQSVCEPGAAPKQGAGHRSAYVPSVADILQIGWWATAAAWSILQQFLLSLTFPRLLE
T1 sequence (P54289 957-1103 partner limits assumed): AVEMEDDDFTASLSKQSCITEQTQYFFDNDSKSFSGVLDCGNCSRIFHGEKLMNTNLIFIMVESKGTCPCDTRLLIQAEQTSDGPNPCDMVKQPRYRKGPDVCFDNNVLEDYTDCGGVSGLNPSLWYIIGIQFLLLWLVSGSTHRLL
T1 sequence (P54284 whole entry partner): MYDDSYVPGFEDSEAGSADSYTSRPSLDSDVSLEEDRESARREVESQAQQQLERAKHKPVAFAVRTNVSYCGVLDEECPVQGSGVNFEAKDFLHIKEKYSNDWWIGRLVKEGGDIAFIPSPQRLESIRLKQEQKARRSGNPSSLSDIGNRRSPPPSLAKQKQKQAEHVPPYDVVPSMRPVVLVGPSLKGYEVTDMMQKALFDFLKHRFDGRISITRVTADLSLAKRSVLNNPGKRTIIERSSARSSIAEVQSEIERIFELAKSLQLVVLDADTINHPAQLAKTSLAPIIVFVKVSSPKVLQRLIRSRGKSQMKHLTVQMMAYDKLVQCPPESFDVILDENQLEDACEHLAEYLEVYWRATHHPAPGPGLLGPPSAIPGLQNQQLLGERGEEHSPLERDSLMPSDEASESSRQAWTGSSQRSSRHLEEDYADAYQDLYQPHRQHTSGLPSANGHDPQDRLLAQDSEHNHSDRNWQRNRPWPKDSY

IC50	SMILES
10000 to 20000 nM	COc1ccc(C(F)(F)F)cc1NC(=O)CN1CCC(N(C2CC2)S(=O)(=O)c2cccc(C(F)(F)F)c2)CC1 [Compound 83, 2-{4-[Cyclopropyl-(3-trifluoromethylbenzenesulfonyl)amino]-piperidin-1-yl}-N-(2-methoxy-5-trifluoromethylphenyl)-acetamide]
1730 nM	COc1ccc(CN[C@H](C(=O)N2CCC(N(C(C)C)S(=O)(=O)c3cccc(C(F)(F)F)c3)CC2)C(C)C)cc1 [Compound 88a, (S)—N-Isopropyl-N-{1-[2-(4-methoxybenzylamino)-3-methylbutyryl]-piperidin-4-yl}-3-trifluoromethylbenzenesulfonamide]
9560 nM	CC(NCCCn1ccnc1)C(=O)N1CCC(N(C(C)C)S(=O)(=O)c2cccc(C(F)(F)F)c2)CC1 (stereo not drawn) [Compound 90, N-{1-[2-(3-Imidazol-1-yl-propylamino)propionyl]-piperidin-4-yl}-N-isopropyl-3-trifluoromethylbenzenesulfonamide]
1150 nM	CCC(NCc1ccccc1)C(=O)N1CCC(N(C(C)C)S(=O)(=O)c2cccc(C(F)(F)F)c2)CC1 (stereo not drawn) [Compound 91, N-[1-(2-Benzylaminobutyryl)-piperidin-4-yl]-N-isopropyl-3-trifluoromethylbenzenesulfonamide]
5270 nM	CCC(NC1CC1)C(=O)N1CCC(N(C(C)C)S(=O)(=O)c2cccc(C(F)(F)F)c2)CC1 (stereo not drawn) [Compound 92, N-[1-(2-Cyclopropylaminobutyryl)-piperidin-4-yl]-N-isopropyl-3-trifluoromethylbenzenesulfonamide]
2240 nM	COCCNCC(=O)N1CCC(N(C(C)C)S(=O)(=O)c2cccc(C(F)(F)F)c2)CC1 [Compound 95, N-Isopropyl-N-{1-[2-(2-methoxy-ethylamino)acetyl]-piperidin-4-yl}-3-trifluoromethylbenzenesulfonamide]
2360 nM	COc1ccc(CNCC(=O)N2CCC(N(C3CC3)S(=O)(=O)c3ccccc3)CC2)cc1 [Compound 97, N-Cyclopropyl-N-{1-[2-(4-methoxy-benzylamino)acetyl]-piperidin-4-yl}-benzenesulfonamide]
2670 nM	O=C(CNCc1ccc(F)cc1)N1CCC(N(C2CC2)S(=O)(=O)c2ccccc2)CC1 [Compound 98, N-Cyclopropyl-N-{1-[2-(4-fluorobenzylamino)acetyl]-piperidin-4-yl}-benzenesulfonamide]
2000 nM	CC(C)CNC(=O)CCN1CCC(N(C(C)C)S(=O)(=O)c2cccc(C(F)(F)F)c2)CC1 [Compound 107c, N-Isobutyl-3-{4-[isopropyl-(3-trifluoromethylbenzenesulfonyl)amino]-piperidin-1-yl}-propionamide]
1490 nM	NCCN1CCC(N(C2CC2)S(=O)(=O)c2cccc(C(F)(F)F)c2)CC1 [Compound 114, N-[1-(2-Aminoethyl)-piperidin-4-yl]-N-cyclopropyl-3-trifluoromethylbenzenesulfonamide]
3180 nM	O=C(CC(=O)N1CCC(NS(=O)(=O)c2cccc(C(F)(F)F)c2)CC1)Nc1ccc(F)cc1F [Compound 115, N-(2,4-Difluorophenyl)-3-oxo-3-[4-(3-trifluoromethylbenzenesulfonylamino)-piperidin-1-yl]-propionamide]
1240 nM	O=C(CN1CCC(NS(=O)(=O)c2cccc(C(F)(F)F)c2)CC1)Nc1ccc(F)cc1 [Compound 116, N-(4-Fluorophenyl)-2-[4-(3-trifluoromethylbenzenesulfonylamino)-piperidin-1-yl]-acetamide]
1220 nM	O=C(CN1CCC(NS(=O)(=O)c2cccc(C(F)(F)F)c2)CC1)Nc1ccc(C(F)(F)F)c(C(F)(F)F)c1 [N-(3,4-bis-trifluoromethylphenyl)-2-{4-[(3-trifluoromethylbenzenesulfonyl)amino]-piperidin-1-yl}-acetamide]
9390 nM	CC(C)N(C1CCN(C(=O)C(C)(C)N)CC1)S(=O)(=O)c1cccc(C(F)(F)F)c1 [N-[1-(2-amino-2-methyl-propionyl)-piperidin-4-yl]-N-isopropyl-3-trifluoromethylbenzenesulfonamide]
470 nM	CC(C)N(C1CCN(C(=O)C(N)Cc2csc3ccccc23)CC1)S(=O)(=O)c1cccc(C(F)(F)F)c1 (stereo not drawn) [N-[1-(2-amino-3-benzo[b]thiophen-3-yl-propionyl)-piperidin-4-yl]-N-isopropyl-3-trifluoromethyl-benzenesulfonamide]
2550 nM	CC(C)N(C1CCN(C(=O)C(N)Cc2cccc3ccccc23)CC1)S(=O)(=O)c1cccc(C(F)(F)F)c1 (stereo not drawn) [N-[1-(2-amino-3-naphthalen-1-yl-propionyl)-piperidin-4-yl]-N-isopropyl-3-trifluoromethyl-benzenesulfonamide]
2940 nM	C=CCC(N)C(=O)N1CCC(N(C(C)C)S(=O)(=O)c2cccc(C(F)(F)F)c2)CC1 (stereo not drawn) [N-[1-(2-amino-pent-4-enoyl)-piperidin-4-yl]-N-isopropyl-3-trifluoromethyl-benzenesulfonamide]
5960 nM	C#CCC(N)C(=O)N1CCC(N(C(C)C)S(=O)(=O)c2cccc(C(F)(F)F)c2)CC1 (stereo not drawn) [N-[1-(2-amino-pent-4-ynoyl)-piperidin-4-yl]-N-isopropyl-3-trifluoromethyl-benzenesulfonamide]
1100 nM	CC(C)N(C1CCN(C(=O)CC(N)c2cccs2)CC1)S(=O)(=O)c1cccc(C(F)(F)F)c1 (stereo not drawn) [N-[1-(3-amino-3-thiophen-2-yl-propionyl)-piperidin-4-yl]-N-isopropyl-3-trifluoromethyl-benzenesulfonamide]
8330 nM	CC(C)N(C1CCN(C(=O)C2(N)CCOCC2)CC1)S(=O)(=O)c1cccc(C(F)(F)F)c1 [N-[1-(4-amino-tetrahydro-pyran-4-carbonyl)-piperidin-4-yl]-N-isopropyl-3-trifluoromethyl-benzenesulfonamide]
2910 nM	CC(C)N(C1CCN(C(=O)C2CNC2)CC1)S(=O)(=O)c1cccc(C(F)(F)F)c1 [N-[1-(azetidine-3-carbonyl)-piperidin-4-yl]-N-isopropyl-3-trifluoromethyl-benzenesulfonamide]
1000 nM	COc1ccc(NCCC(=O)N2CCC(N(C(C)C)S(=O)(=O)c3cccc(C(F)(F)F)c3)CC2)cc1 [N-isopropyl-N-{1-[3-(4-methoxy-phenylamino)-propionyl]-piperidin-4-yl}-3-trifluoromethyl-benzenesulfonamide]
1040 nM	CC(C)N(C1CCN(C(=O)CCNc2cccc(F)c2)CC1)S(=O)(=O)c1cccc(C(F)(F)F)c1 [N-{1-[3-(3-fluoro-phenylamino)-propionyl]-piperidin-4-yl}-N-isopropyl-3-trifluoromethyl-benzenesulfonamide]
1390 nM	CC(C)N(C1CCN(C(=O)CCNc2ccc(C#N)cc2)CC1)S(=O)(=O)c1cccc(C(F)(F)F)c1 [N-{1-[3-(4-cyano-phenylamino)-propionyl]-piperidin-4-yl}-N-isopropyl-3-trifluoromethyl-benzenesulfonamide]
